Test results as given in PMC10778758, “Dithioethanol (DTE)-Conjugated Deoxyribose Cyclic Dinucleotide Prodrugs (DTE-dCDNs) as STING Agonist” (International Journal of Molecular Sciences, 2023).

Legend:
[1] = tested on: CT-26 cells; experiment: RT-qPCR of IFN-β mRNA in CT-26 cells; format: cell-based; settings: CT-26, prodrug 9 and ADU-S100 10 μM, CDNs 100 μM, 4 h
Procedure: Real-time quantitative PCR (RT-qPCR). The mRNA expression levels of diverse cytokines were measured using quantitative RT-PCR (RT-qPCR) assays. THP-1 cells or CT26 cells were incubated with the compounds for 4 h, subsequently harvested for RNA isolation according to the manufacturer’s instructions of RNApure Tissue&Cell Kit (DNase I) (CWBIO, Cambridge, MA, USA catalogue no. CW0560S). Next, 1 μg RNA was reversely transcribed to cDNA by TransScript All-in-One First-Strand cDNA Synthesis SuperMix for qPCR (One-Step gDNA Removal) (TransGen, Beijing, China). To examine the mRNA levels, real-time PCR was performed in a CFX96 Real-Time PCR system (Bio-RAD, Hercules, CA, USA) using PerfectStart Green qPCR Super Mix (TransGen) and primers (Sangon Biotech, Shanghai, China). The expression level was calculated according to the formula (2^−∆∆Ct) using the GAPDH or β-actin as the internal reference gene and the relative gene expression fold was normalized to the DMSO-treated cells. The THP-1 and CT26 cell lines were obtained from American Type Culture Collection (ATCC, Manassas, VA, USA). […]
expression levels of IFN-β were assessed by real-time quantitative PCR (qPCR) under the treatment of prodrug 9 (10 μM), 3′,3′-c-di-dAMP (100 μM), 2′,3′-cGAMP (100 μM) and ADU-S100 (10 μM) for 4 h.
Figure S3. […]
levels of IFN-β were assessed by an enzyme-linked immunosorbent assay (ELISA). […]

[2] = In vitro serum stability assay in 20% fetal bovine serum; format: in vitro ADME; settings: 100 μM, 20% FBS, 37 °C
Procedure: In vitro serum stability assay. Each compound (100 μM) was incubated at 37 °C in the reaction buffer including 20% fetal bovine serum (FBS, GIBCO, Thermo Fisher Scientific, Waltham, MA, USA), 10 mM PBS (pH 7.4), and 1 mM MgCl2. At various times, aliquots of the reaction mixture were collected and stopped by adding 50 μL MeCN and diluted with 50 μL water. The reaction mixture was then centrifuged at 10,000 rpm for 5 min, leaving 100 μL supernatant for the HPLC assay. An amount of 10 μL of each aliquot was injected directly into HPLC (Agilent 1260 Infinity HPLC equipped with a UV detector; column Agilent ZORABX SB-C18 5 μm [4.6 × 150 mm; detection at 254 nm; column temperature 25 °C] for analysis. Amounts of 10 mM TEAA buffer (solvent A) and MeCN (solvent B) were used as the mobile phase with a flow rate of 1 mL/min. The gradient was set as the following: 0–2 min: 98% A/2% B; 2–6 min: 98% A/2% B to 100% B; 6–10 min: 100% B; 10–13 min: 100% B to 98% A/2% B; 13–15 min: 98% A/2% B. The % remaining of the test compounds after incubation in the serum was then calculated.
Figure 4 Parent dCDN of DTE-dCDN prodrug 9 retained a high serum stability. The serum stability analysis of (a) prodrug 9, (b) 3′,3′-c-di-dAMP, (c) 2′,3′-cGAMP and (d) ADU-S100 were determined in 20% FBS. Each compound (100 μM) was incubated in 20% FBS at 37 °C. At various times (0, 2, 4, 8, 12, 24, 48, 72 h), aliquots of the reaction mixture were analyzed with HPLC at 254 nm. The % remaining of test compounds after incubation in serum was calculated.

[3] = tested on: THP1-Lucia cells; experiment: Luciferase activity in THP1-Lucia cells pretreated with STING or TBK1 inhibitor; format: cell-based; settings: inhibitor 10 μM pretreated 1 h, prodrug 9 10 μM, 24 h
Procedure: The endogenous 2′,3′-cGAMP was set as the positive control group. H-151 [26] and BX795 [27] were selected to use as the STING inhibitor and TBK1 inhibitor, respectively.
Figure 6 Prodrug 9 activated the IFN-β promoter responsive luciferase expression through STING signaling pathway. Prodrug 9 (10 μM) and 2′,3′-cGAMP (10 μM) were added to THP1-Lucia cells alone or pretreated with vehicle or H-151 (10 μM), BX795 (10 μM) for 1 h, respectively. The luciferase activity was measured with Quanti-Luc reagent via a 24 h incubation at 37 °C. Data are presented as mean ± SD, n = 3.

[4] = tested on: THP-1 cells; experiment: Uptake of DTE-dCDN prodrug, intracellular levels by LC/MS/MS; settings: THP-1 cells treated with 100 μM 3′,3′-c-di-dAMP, within 6 h
Procedure: Uptake of DTE-dCDN Prodrug. THP-1 cells were seeded at a concentration of 5 × 10^6 cells/mL into a 12-well plate. After 16 h of incubation at 37 °C in a 5% CO2 atmosphere, the compounds were added to cell cultures and the cells were collected at time points of 1 h, 2 h, 4 h, 6 h, 8 h, 12 h, and 24 h by centrifugation for 1 min at 1000× g. The media was removed completely, and the cells were washed twice with 800 μL of ice-cold PBS before being lysed with 400 μL ice-cold 70% methanol. Lysates were incubated overnight at −20 °C and then centrifuged for 20 min at 13,000× g to remove cellular debris. The supernatant was analyzed via LC/MS/MS (Agilent 1290 Infinity II/6470A)
(a) The intracellular concentration of the prodrug 9 in THP-1 cells. (b) The intracellular concentration of the parent dCDN (3′,3′-c-di-dAMP) in THP-1 cells. THP-1 cells were treated with 10 μM prodrug 9 or 100 μM parent dCDN (3′,3′-c-di-dAMP) for the indicated period of time (1, 2, 4, 6, 8, 12, 24 h), and the intracellular concentration of the metabolites in cellular extracts was determined with liquid chromatograph MS/MS analysis.

[5] = tested on: THP1-Lucia cells; experiment: THP1-Lucia cell-based luciferase reporter assay; settings: 24 h
Procedure: THP1-Lucia cell-based reporter assay. THP1-Lucia cells were seeded into a 24-well plate at a density of 5 × 10^4 cells/well. […] Finally, the medium was collected to determine the luciferase activity using QUANTI-Luc (InvivoGen, San Diego, CA, USA) according to the manufacturer′s instruction to calculate the EC50 values of the tested compounds. The results are expressed as the mean ± SD from three independent experiments. Emax values were normalized to the response induced by 2′,3′-cGAMP in each assay and expressed as a mean percentage ± SD from three independent experiments. The THP1-Lucia cell line was obtained from Prof. Junmin Quan from Peking University (Beijing, China).
Figure 5 The luciferase-based assay in the THP1-Lucia reporter cell line. (a) EC50 values represent the mean (±SD) of three independent experiments. (b) Emax values represent the mean (±SD) of three independent experiments.

Compound	T1/2 (half-life period) [2] [h]	degraded at 72 h [2]	effect on induction of luciferase expression by prodrug 9 [3]	also measured
Nc1ncnc2c1ncn2[C@@H]1O[C@@H]2COP(=O)([S-])O[C@@H]3[C@H](O)[C@@H](COP([O-])(=S)O[C@H]2[C@H]1O)O[C@H]3n1cnc2c(N)ncnc21.[Na+].[Na+] (stereo partly shown) [ADU-S100, reference compound]	67	–	–	induction of IFN-β transcription in CT-26 cells [1]: no significant induction
Nc1nc2c(ncn2[C@@H]2O[C@@H]3COP(=O)(O)O[C@H]4[C@@H](O)[C@H](n5cnc6c(N)ncnc65)O[C@@H]4COP(=O)(O)O[C@@H]2[C@@H]3O)c(=O)[nH]1 [2′,3′-cGAMP]	31	80%	–	–
O=C(NCCCNc1nc(Nc2cccc(NC(=O)N3CCCC3)c2)ncc1I)c1cccs1 [BX795]	–	–	could block the induction of the luciferase expression	–
CCc1ccc(NC(=O)Nc2c[nH]c3ccccc23)cc1 [H-151]	–	–	could block the induction of the luciferase expression	–
Nc1ncnc2c1ncn2[C@H]1C[C@@H]2OP(=O)(O)OC[C@H]3O[C@@H](n4cnc5c(N)ncnc54)C[C@@H]3OP(=O)(O)OC[C@H]2O1 [3′,3′-c-di-dAMP]	> 72	did not show any degradation	–	intracellular levels of the parent dCDN 3′,3′-c-di-dAMP [4]: not detectable; EC50 [5]: 41.3 µM
